Assay results taken from publication PMC6054692, “Library screening of cell-penetrating peptide for BY-2 cells, leaves of Arabidopsis, tobacco, tomato, poplar, and rice callus” (Scientific Reports, 2018).

Tested on: BY-2 cells
Assay: Cell penetration efficiency into BY-2 suspension culture cells (CLSM of TAMRA-labeled CPP)
Conditions: negative control without CPP, 15 min, 1 h, 3 h and 6 h at 26 °C, BY-2 cells 3 days after subculture
Experimental: To evaluate the cell penetration efficiency of the 55 CPPs into BY-2 suspension culture cells, we first optimized the CPP concentration and cell density using BP100 as a model CPP. The cell penetration efficiency of CPP into BY-2 cells was determined based on the ratio of numbers of cell with and without TAMRA signals of CPP by confocal laser scanning microscopy (CLSM) (Fig. 2). […] Thus, we used the BY-2 cells at 3 days after subculture as well as the incubation time of 3 hours for all the experiments in this study.
Suspension-cultured tobacco (Nicotiana tabacum) cv. BY-2 cells were provided by the RIKEN Bio Resource Center. […]
The penetration efficiency of CPPs into BY-2 suspension cells and young true leaves of N. benthamiana, A. thaliana, Moneymaker tomato, O. sativa Nipponbare, and poplar, and O. sativa callus was determined using confocal laser scanning microscopy (CLSM, ZeissLSM 700, Carl Zeiss, Oberkochen, Germany). The intracellular localization of TAMRA-labeled CPP was observed using excitation at 555 nm for the detection of TAMRA fluorescence. The total number of cells was counted using differential interfering contrast images. The efficiency was determined as follows: Cellpenetrationefficiency(%)=(thenumberofstainedcells)/(thenumberoftotalcells)×100 Various BY-2 cell concentrations (230 to >1000 cells/µL) of BY-2 cells were tested to determine the optimal cell concentration. […]

CN(C)c1ccc2c(-c3ccc(C(=O)O)cc3C(=O)[O-])c3ccc(N(C)C)cc3[o+]c2c1 [TAMRA, 5-carboxytetramethylrhodamine]
Penetration of TAMRA alone into BY-2 cells: could not penetrate
